Measurements reported in article PMC7658073 (Clinical Pharmacokinetics, 2020).
Read-outs that look alike come from different tables or passages of the source.

Columns and labels:
[1] = target: T1, organic cation transporter 1 (Homo sapiens, UniProt O15245); test: Inhibitory potency towards OCT1; assay type: in vitro ADME
T1 sequence (O15245 1-554): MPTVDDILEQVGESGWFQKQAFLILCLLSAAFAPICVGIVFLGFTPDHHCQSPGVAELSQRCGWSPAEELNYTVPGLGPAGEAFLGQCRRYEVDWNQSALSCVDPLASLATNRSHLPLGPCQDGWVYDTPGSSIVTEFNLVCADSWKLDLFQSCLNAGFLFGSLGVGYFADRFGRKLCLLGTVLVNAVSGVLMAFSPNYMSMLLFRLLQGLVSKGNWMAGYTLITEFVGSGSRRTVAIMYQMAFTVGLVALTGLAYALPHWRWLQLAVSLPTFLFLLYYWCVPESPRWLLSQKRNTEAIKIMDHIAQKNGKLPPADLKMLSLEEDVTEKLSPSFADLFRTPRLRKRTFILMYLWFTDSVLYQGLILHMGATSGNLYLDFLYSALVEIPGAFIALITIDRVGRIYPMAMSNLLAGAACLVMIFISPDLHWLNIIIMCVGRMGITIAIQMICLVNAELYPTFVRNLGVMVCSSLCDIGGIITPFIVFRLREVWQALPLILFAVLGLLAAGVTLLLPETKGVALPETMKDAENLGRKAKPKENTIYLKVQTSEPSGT

OATP1B1 = target: T2, OATP1B1 (Homo sapiens, UniProt Q9Y6L6); test: Substrate properties towards OATP1B1; assay type: in vitro ADME
T2 sequence (Q9Y6L6 1-691): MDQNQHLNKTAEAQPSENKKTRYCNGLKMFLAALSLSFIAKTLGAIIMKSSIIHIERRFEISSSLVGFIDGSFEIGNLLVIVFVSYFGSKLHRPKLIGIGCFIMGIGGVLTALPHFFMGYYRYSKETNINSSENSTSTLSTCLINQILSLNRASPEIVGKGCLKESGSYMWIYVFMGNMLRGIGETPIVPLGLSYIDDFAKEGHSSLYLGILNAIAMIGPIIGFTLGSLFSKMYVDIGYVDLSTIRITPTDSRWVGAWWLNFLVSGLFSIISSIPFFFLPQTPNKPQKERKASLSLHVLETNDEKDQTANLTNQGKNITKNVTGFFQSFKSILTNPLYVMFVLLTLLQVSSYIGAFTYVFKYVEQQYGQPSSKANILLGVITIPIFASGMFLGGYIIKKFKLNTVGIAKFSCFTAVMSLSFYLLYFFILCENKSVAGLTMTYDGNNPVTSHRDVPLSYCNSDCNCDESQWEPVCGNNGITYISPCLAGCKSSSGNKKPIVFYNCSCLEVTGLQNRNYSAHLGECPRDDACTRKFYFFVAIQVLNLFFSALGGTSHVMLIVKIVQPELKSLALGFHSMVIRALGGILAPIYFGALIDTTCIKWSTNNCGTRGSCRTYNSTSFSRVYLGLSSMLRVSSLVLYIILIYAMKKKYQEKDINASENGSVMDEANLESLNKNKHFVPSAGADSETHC

CYP3A4 = test: CYP induction in cultured human hepatocytes: CYP3A4; assay type: in vitro ADME; conditions: one of the three donors
UGT1A9 = target: T3, UGT1A9 (Homo sapiens, UniProt O60656); test: Inhibitory potency towards UGT isoforms: UGT1A9; assay type: in vitro ADME
T3 sequence (O60656 26-530): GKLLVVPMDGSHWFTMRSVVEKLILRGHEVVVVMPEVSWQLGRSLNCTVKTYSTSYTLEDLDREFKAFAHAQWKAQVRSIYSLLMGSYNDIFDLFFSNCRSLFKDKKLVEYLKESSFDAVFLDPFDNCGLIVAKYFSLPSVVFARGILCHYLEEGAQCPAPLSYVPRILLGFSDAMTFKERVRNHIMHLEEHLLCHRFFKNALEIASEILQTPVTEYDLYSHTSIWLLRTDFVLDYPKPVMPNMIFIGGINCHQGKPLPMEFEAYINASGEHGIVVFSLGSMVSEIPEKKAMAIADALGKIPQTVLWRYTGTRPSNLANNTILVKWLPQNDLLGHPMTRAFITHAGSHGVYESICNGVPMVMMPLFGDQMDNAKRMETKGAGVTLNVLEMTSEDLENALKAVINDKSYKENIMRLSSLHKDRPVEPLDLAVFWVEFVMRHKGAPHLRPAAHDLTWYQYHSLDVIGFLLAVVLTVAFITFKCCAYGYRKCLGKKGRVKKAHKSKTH

P-glycoprotein [2] = target: T4, P-glycoprotein (Homo sapiens, UniProt P08183); test: Substrate properties towards P-gp; assay type: in vitro ADME
T4 sequence (P08183 whole entry): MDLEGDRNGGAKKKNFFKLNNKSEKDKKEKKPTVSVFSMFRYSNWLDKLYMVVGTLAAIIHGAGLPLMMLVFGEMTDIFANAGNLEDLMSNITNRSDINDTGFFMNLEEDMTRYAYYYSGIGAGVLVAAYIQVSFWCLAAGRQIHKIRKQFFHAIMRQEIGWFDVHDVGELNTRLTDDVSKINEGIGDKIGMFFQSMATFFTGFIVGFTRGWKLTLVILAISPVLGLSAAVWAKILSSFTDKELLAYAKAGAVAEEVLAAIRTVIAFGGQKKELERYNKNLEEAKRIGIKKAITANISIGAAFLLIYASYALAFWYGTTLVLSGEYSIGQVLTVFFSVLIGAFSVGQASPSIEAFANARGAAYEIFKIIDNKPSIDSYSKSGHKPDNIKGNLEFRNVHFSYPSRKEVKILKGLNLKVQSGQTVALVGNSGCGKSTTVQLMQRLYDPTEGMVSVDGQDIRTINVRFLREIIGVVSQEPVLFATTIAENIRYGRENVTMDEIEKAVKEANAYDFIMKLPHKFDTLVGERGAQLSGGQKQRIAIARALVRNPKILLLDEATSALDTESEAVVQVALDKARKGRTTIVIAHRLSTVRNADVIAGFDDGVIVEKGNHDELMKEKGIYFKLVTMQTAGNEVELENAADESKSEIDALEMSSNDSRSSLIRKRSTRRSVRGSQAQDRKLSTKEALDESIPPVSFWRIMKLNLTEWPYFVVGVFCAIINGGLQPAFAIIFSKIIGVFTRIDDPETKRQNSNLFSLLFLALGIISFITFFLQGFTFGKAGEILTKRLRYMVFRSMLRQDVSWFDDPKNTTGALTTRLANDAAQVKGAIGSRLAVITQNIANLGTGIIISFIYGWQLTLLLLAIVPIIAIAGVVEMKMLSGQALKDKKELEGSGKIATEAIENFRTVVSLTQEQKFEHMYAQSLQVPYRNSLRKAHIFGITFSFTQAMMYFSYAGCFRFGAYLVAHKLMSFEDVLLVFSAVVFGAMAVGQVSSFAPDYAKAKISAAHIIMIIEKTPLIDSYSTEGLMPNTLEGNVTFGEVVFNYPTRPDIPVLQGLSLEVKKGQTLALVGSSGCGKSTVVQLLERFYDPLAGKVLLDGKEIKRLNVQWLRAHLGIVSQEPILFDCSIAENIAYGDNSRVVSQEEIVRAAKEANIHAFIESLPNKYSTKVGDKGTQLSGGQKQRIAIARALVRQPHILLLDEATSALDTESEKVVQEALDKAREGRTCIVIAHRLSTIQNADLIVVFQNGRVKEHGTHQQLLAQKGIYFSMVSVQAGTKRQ

[3] = Phase I DDI study with sildenafil; assay type: in vivo, human
UGT1A6 = target: T5, UGT1A6 (Homo sapiens, UniProt P19224); test: Inhibitory potency towards UGT isoforms: UGT1A6; assay type: in vitro ADME
T5 sequence (P19224 27-532): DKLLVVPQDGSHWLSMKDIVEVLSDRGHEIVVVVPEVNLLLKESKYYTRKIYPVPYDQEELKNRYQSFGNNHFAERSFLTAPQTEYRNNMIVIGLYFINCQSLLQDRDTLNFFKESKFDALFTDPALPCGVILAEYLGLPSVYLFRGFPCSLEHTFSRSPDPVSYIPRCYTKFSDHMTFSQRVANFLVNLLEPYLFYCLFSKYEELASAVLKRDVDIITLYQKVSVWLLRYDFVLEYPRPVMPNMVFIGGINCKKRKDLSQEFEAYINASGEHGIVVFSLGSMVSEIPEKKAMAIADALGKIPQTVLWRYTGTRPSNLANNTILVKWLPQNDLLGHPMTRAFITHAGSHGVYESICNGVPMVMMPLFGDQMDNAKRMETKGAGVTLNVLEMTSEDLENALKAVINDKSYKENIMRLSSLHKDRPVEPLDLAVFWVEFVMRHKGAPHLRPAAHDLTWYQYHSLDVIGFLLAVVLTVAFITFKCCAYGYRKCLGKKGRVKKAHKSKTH

P-glycoprotein [4] = target: T4, P-glycoprotein; test: Inhibitory potential towards P-gp; assay type: in vitro ADME
[5] = ref data on file, cited from earlier work
[6] = with sildenafil 100 mg vs without, vericiguat 10 mg QD, fed
[7] = following a 10-mg dose once daily

IC50 [1]: > 50 µM
Substrate of OATP1B1 (OATP1B1): not a substrate
CYP3A4 mRNA induction relative to rifampicin [positive control] response (CYP3A4; highest tested concentration): 4%
Increase in CYP3A4 messenger RNA (CYP3A4; highest tested concentration 10,000 μg/L (23.5 µM)): 2.7 fold
IC50 (UGT1A9): 10.6 µM
Ki (UGT1A9): 6.6 µM
Substrate of P-glycoprotein (P-glycoprotein [2]): substrate
Decrease in vericiguat exposure (differences in PK parameters) ([3]; co-administration with sildenafil 50 mg): less than 9%
AUC0–24,md of vericiguat, point estimate of treatment ratio [3, 6]: 0.993
Cmax,md of vericiguat, point estimate of treatment ratio [3, 6]: 0.970
IC50 (UGT1A6): > 50 µM
IC50 (P-glycoprotein [4]): > 100 µM
Structure (SMILES): COC(=O)Nc1c(N)nc(-c2nn(Cc3ccccc3F)c3ncc(F)cc23)nc1N [Vericiguat]
Projected unbound inlet Cmax [5, 7]: 0.03 µM
Unbound Cmax [5, 7]: approximately 0.02 µM
Unbound Cmax ([5]; multiple-dose oral 10 mg once daily in patients with HFrEF): approximately 0.02 µM
Cmax ([5]; read-out: Total Cmax, following a 10-mg dose once daily): ~800 nM
